Reference: US10577387B1, “Platinum (II) complexes containing N-heterocyclic carbene ligand and pincer ligands, synthesis, and their applications in cancer treatment” (priority 2018, dated 2020)

Experiments:
MiHa = test: MTT assay, in vitro cytotoxicity, non-tumorigenic hepatocyte; format: cell-based, human; conditions: 72 h
Protocol: (§1) The cell lines were maintained in cell culture media (Minimum essential medium (MEM) for HeLa; and Dulbecco's modified eagle medium (DMEM) for MDA-MB-231 and MiHa, Roswell Park Memorial Institute (RPMI) medium for NCI-H460 and HCT116 supplemented with fetal bovine serum (10 vol %), streptomycin (100 μg/ml) and penicillin (100 U/ml) in an incubator (5% CO2) at 37° C.
(§2) The inhibition of cell growth by different metal complexes were determined by MTT assay. Firstly, 4×10^3 to 8×10^3 cells were seeded on 96-well culture plates for 24 h. Then, different concentrations of complex was added into different wells by serial dilution and the cells were incubated with complex for 48-72 h. After that, 10 μl of MTT solution (5 mg/ml) was added per well and the plate was incubated for 4 h at 37° C. in a humidified atmosphere of 5% CO2. Viable cells with active metabolism converted MTT into a purple colored formazan product. In order to solubilize the formazan for absorbance readings, 100 μl of SDS (0.1 g/ml, 0.01 M HCl) was added per well and the plate was kept in a dark and humidified chamber overnight. Finally, the absorbance at 580 nm of each well was monitored by microtiter plate reader.
The growth inhibition by a specific complex was represented by IC50 (concentration of a complex causing 50% inhibition of cell growth). […]

MDA-MB-231 = test: MTT assay, in vitro cytotoxicity / cell growth; format: cell-based, human; conditions: for cell growth inhibition, agent alone: 1b at sub-cytotoxic concentration, LY294002 or U0126 10 or 20 μM
HeLa = test: MTT assay, in vitro cytotoxicity; format: cell-based, human; conditions: 72 h
Protocol: as §1, §2
(§3) The growth inhibition by a specific complex was represented by IC50 (concentration of a complex causing 50% inhibition of cell growth). Each experiment was repeated three times and the results were expressed as means±standard deviation (SD).

NCI-H460 = test: MTT assay, in vitro cytotoxicity; format: cell-based, human; conditions: 72 h
Protocol: as §1, §2, §3

HCT116 = test: MTT assay, in vitro cytotoxicity; format: cell-based, human; conditions: 72 h
Protocol: as §1, §2, §3

[1] = test system: FAK, ERK, Akt in MDA-MB-231 cells; test: Western blot of phosphorylated and total FAK, ERK and Akt; format: cell-based, human
Protocol: (§4) MDA-MB-231 cells (5×10^5 cells) were incubated with Pt compound and washed with phosphate-buffered saline (PBS), lysed with radioimmunoprecipitation assay buffer (1% Triton X-100, 10% glycerol, 150 mM NaCl, 5 mM sodium fluoride, 1 mM sodium vanadate and protein inhibitor cocktail) for 15 min at 4° C. The cell lysates were centrifuged at 13,000 rpm for 15 min at 4° C. The protein concentrations of the extracts were determined using a BCA protein assay kit (Beyotime, Haimen, China). Specific amount of protein sample (30 μg) was then boiled for 5 min in a 5× sample buffer (50 mM Tris (pH 7.4), 4% sodium dodecyl sulfate (SDS), 10% glycerol and 50 μg/mL bromophenol blue) at a volume ratio of 4:1. Protein samples were subjected to SDS-polyacrylamide gel electrophoresis (PAGE), transferred to polyvinylidene difluoride membranes and immunoblotted with primary anti-bodies. After further incubation with horseradish peroxidase (HRP)-conjugated secondary antibody, the blot was stained with a chemiluminescent detection reagent and subsequently analyzed by enhanced chemiluminescence. Protein expression was visualized on Kodak Biomax X-ray film.

HeLa cells [2] = test: JC1 staining (mitochondrial membrane potential); format: cell-based, human; conditions: with increasing dosage, 2 h
chicken CAM = test: Chorioallantoic membrane (CAM) assay, ex vivo angiogenesis; conditions: VEGF 50 ng/mL, one day
Protocol: The effect of Pt complex on the ex vivo angiogenesis was determined by chorioallantoic membrane (CAM) assay. Briefly, fertilized chicken eggs were incubated at 37° C. in a humidified incubator with forced air circulation. After 5-6 days, eggs were cracked open and methylcellulose discs containing different concentrations of 1d (40 μl/egg) and VEGF (50 ng/mL) were gently implanted on top of chicken CAM. After one day incubation, the CAM was observed under a microscope (Olympus BX 40) and photographed. VEGF treatment group was used as a positive control. Three eggs per group were used in each experiment and three independent experiments were performed.

HUVECs [3] = test: Conditioned medium (VEGF)-mediated tube formation; format: cell-based, human; conditions: MDA-MB-231 conditioned medium VEGF 13.4 ng/mL, 24 h, sub-cytotoxic
Protocol: (§5) Human umbilical vein endothelial cells (HUVEC) were cultured in endothelial cell growth medium (ECGM): M199 medium (Life Technologies, Invitrogen) supplemented with 15 vol % fetal bovine serum at 37° C. in a humidified (5% CO2, 95% air) atmosphere.

[4] = test system: uPA, MMP-9, TIMP-1 in MDA-MB-231 cells; test: Western blot of uPA, MMP-9 and TIMP1; format: cell-based, human
Protocol: as §4

HeLa cells [5] = test: Confocal fluorescence microscopy co-localization with organelle probes; format: cell-based, human; conditions: 1b 5 μM
Protocol: HeLa cells (2×10^5 cells) were seeded in a one chamber slide (Nalgene; Nunc) with culture medium (2 mL per well) and incubated at 37° C. in a humidified atmosphere of 5% CO2/95% air for 24 h. After treating with 1b (5 μM) for 1 h, ER-tracker™ red (1 μM), Mitotracker® deep red (50 nM) or Lysotracker® deep red (50 nM) were incubated with cells for 10 min, and then the cells were washed with PBS twice. Confocal fluorescence images were captured using a Carl Zeiss LSM510 Meta confocal microscope with the use of 488 and 543 nm/633 nm lasers for the excitation of complex 1b and red/deep red tracker respectively, under a Plan-Apochromat 63×1.40NA oil-immersion objective.

MDA-MB-231 cells [6] = test: Transwell invasion assay; format: cell-based, human; conditions: for inhibition of invasion, agent alone: 1b at sub-cytotoxic concentration, LY294002 or U0126 10 or 20 μM
MDA-MB-231 xenografts = test: In vivo tumor growth inhibition; set-up: species or system nude mice; conditions: 5 and 2.5 mg/kg
Protocol: All experiments were followed to the guidelines of the Laboratory Animal Unit of the University of Hong Kong. Ten mice were randomly divided into two groups (5 mice for each group) for two different treatment conditions.
Around 4×10^6 of cancer cells in 100 μL of PBS were injected into right back flanks of the mice through subcutaneous injection. […] The size of the tumors were measured by a ruler every 2-3 days until the mice were sacrificed. The longest diameter (a) and shortest diameter (b) of the tumor would be picked up and the volume of the tumor could be calculated through the following formula: V=0.52×ab^2
It should be noted that the body weight of the mice were also be recorded in order to examine the side effect of the drugs.
To calculate the inhibition effect of the drug, the ratio of enlargement of tumor volume between the drug treatment group and control group would be applied in the following formula:
where Vt and Vt′ are the tumor volumes of drug treatment and control group respectively; V0 and V0′ are the tumor volume at the 0 day of drug treatment and control group respectively.

[7] = test system: p15, cyclin D1/D3, CDK 4/6 in MDA-MB-231 cells; test: Western blot of G0/G1 phase-related proteins; format: cell-based, human; conditions: 24 h
Protocol: as §4

[8] = test system: PARP, caspases 3 and 9 in MDA-MB-231 cells; test: Western blot of apoptosis-related proteins; format: cell-based, human; conditions: 48 h
Protocol: as §4

MDA-MB-231 cells [9] = test: Wound closure (scratch) migration assay; format: cell-based, human; conditions: for inhibition of migration, agent alone: 1b at sub-cytotoxic concentration, LY294002 or U0126 10 or 20 μM
Protocol: MDA-MB-231 cells were cultured in 6-well plate and allowed to form a confluent monolayer for 24 h. After serum starved for 4 h, cells were scratched by pipette tips, washed with PBS and photographed by using a fluorescence microscope (20× objective). The fresh medium supplemented with 10 vol % FBS was added into each well with different concentrations of Pt complex. After incubated for 24 h, cells were photographed again at three random areas. Then the migrated cells were quantified by manual counting and inhibition ratio was expressed as % of control.

[10] = Blood biochemistry, systemic toxicity; conditions: treated vs untreated mice bearing MDA-MB-231 xenografts
HUVECs [11] = test: Conditioned medium (VEGF)-mediated transwell invasion; format: cell-based, human; conditions: MDA-MB-231 conditioned medium VEGF 13.4 ng/mL, 24 h, sub-cytotoxic
Protocol: as §5
Effects of Pt complex on the invasion of MDA-MB-231 or HUVECs cells were performed on Transwell Boyden chamber (8 μm pore, Corning, Lowel, Mass.) pre-coated with matrigel for 4 h at 37° C. The cell suspension (2.5×10^5 cells/ml, 100 μL) in serum free medium (SFM) was placed to the upper compartment of chamber. The bottom chambers were supplemented with 500 μl complete medium (10 vol % FBS) or conditioned medium (with VEGF=13.4 ng/ml from MDA-MB-231 cells) containing indicated concentrations of Pt complex. After incubated for 24 h, the non-migrant cells from the upper face were scraped using a cotton swab. The invaded cells on the lower face were fixed with methanol, stained with Giemsa, photographed by a phase-contrast microscope (200×, Nikon TS 100). The invaded cells were quantified by manual counting and inhibition ratio was expressed as % of control.

MS1 cells [12] = test: Tube formation assay; format: cell-based; conditions: 3 h, sub-cytotoxic concentrations
Protocol: The In Vitro Angiogenesis Kit (CaymanChemical) was used in the tube formation assay. Firstly, the ECMatrix solution and 10× Diluent Buffer were mixed in 9:1 (v/v) ratio on ice. Then 50 μL of mixture was transferred into each well of 96-well plate and incubated at 37° C. for 1 h for polymerization. Then, around 4×10^4 of MS-1 cells in 100 μL DMEM medium was pre-mixed with different concentrations of complex and that cell-complex containing medium was added on the top of the polymerized matrix. […]

in vitro = format: cell-based; conditions: mouse
Protocol: (§6) At the same time, the cell viability under the same condition was determined by MTT assay. Again, around 4×10^4 MS-1 cells in 100 μL DMEM medium was pre-mixed with different concentrations of complex and they were seeded into 96-well plate. After 2 h, the medium was removed and fresh medium with 10% MTT was added per well and the plate was incubated for 4 h at 37° C. in a humidified atmosphere of 5% CO2. In order to solubilize the formazan for absorbance readings, 100 μl of SDS (0.1 g/ml, 0.01 M HCl) was added per well and the plate was kept in a dark and humidified chamber overnight. Finally, the absorbance at 580 nm of each well was monitored by microtiter plate reader. Each experiment was repeated three times and the results were expressed as means±standard deviation (SD).

MS1 cells [13] = test: in vitro; format: cell-based
Protocol: as §6

HUVECs [14] = test: Conditioned medium (VEGF)-mediated migration; format: cell-based, human; conditions: MDA-MB-231 conditioned medium VEGF 13.4 ng/mL, 24 h, sub-cytotoxic
Protocol: as §5

[15] = test system: MDA-MB-231 xenograft tumor tissues; test: Immunohistochemical analysis of tumor tissues from treated mice; format: in vivo, nude mice; conditions: 2.5 and 5.0 mg/kg
[16] = test system: PERK, eIF2α, CHOP in MDA-MB-231 cells; test: Western blot of ER stress-related proteins; format: cell-based, human; conditions: 5 uM for 6, 12, 24 and 48 h
Protocol: as §4

[17] = different concentrations 24 h or 2 μM over time
[18] = increasing concentration (24 h) or incubation time (2 μM)

Structure (SMILES): N.N.[Cl][Pt][Cl] [Cisplatin, cis-diamminedichloroplatinum]
- IC50 (MiHa): > 100 µM
- IC50 (MDA-MB-231; MTT, 72 h): 77.2 ± 7.82 µM
- IC50 (HeLa): 12.9 ± 3.84 µM
- IC50 (NCI-H460): 24.9 ± 3.19 µM
- IC50 (HCT116): 11.8 ± 1.36 µM

Structure (SMILES): CCCCN1C=CN(CCCC)[CH]1[Pt]12[n]3c(c4ccccc4c3=Nc3cccc[n+]31)=Nc1cccc[n+]12 [Complex 1b]
- phosphorylation of FAK at Tyr397 [1, 17]: significantly suppress
- phosphorylation of FAK at Tyr925 and Tyr576/577 [1, 17]: moderately inhibited
- total protein level of FAK [1, 17]: little effect
- phosphorylation of Akt ([1]; dose- and time-dependent): significantly inhibited
- phosphorylation of ERK ([1]; dose- and time-dependent): significantly inhibited
- JC1 ratio of orange to green fluorescence (HeLa cells [2]): decrease
- growth inhibition at the concentrations of the migration assay (MDA-MB-231; 0.25-1 μM): insignificant growth inhibition
- cell growth inhibition, agent alone (MDA-MB-231): insignificant cell growth inhibitory effects
- ex vivo angiogenesis in CAM assay (chicken CAM): effective ex vivo anti-angiogenic properties
- CM-mediated tube formation of HUVECs (HUVECs [3]): significantly suppressed
- expression of TIMP-1 ([4]; 24 h): moderately increased
- expression level of MMP-9 [4, 18]: decreased significantly
- expression level of uPA [4, 18]: decreased significantly
- Pearson's correlation coefficient for co-localization with ER-Tracker (HeLa cells [5]): 0.83
- inhibition of invasion, agent alone (MDA-MB-231 cells [6]): notable inhibition
- invasion of MDA-MB-231 cells (MDA-MB-231 cells [6]; sub-cytotoxic concentrations, 24 h): significant inhibition
- death or body weight loss of mice during the treatment (MDA-MB-231 xenografts): did not cause any death or body weight loss
- cyclin D1/D3 and CDK 4/6 expression [7]: down-regulation
- p15 expression [7]: stimulation
- cleavage of PARP and caspases 3 and 9 [8]: cleaved
- inhibition of migration, agent alone (MDA-MB-231 cells [9]): notable inhibition
- migration of MDA-MB-231 cells (MDA-MB-231 cells [9]; sub-cytotoxic 0.25-1 μM, 24 h): effectively inhibited
- blood glucose (GLU) [10]: higher level
- blood urea nitrogen (BUN) [10]: higher level
- plasma level of aspartate aminotransferase (AST) [10]: lower
- plasma level of blood fat (CHOL) [10]: lower
- plasma level of creatine kinase (CK) [10]: lower
- CM-mediated invasion of HUVECs (HUVECs [11]): significantly suppressed
- angiogenesis (tube formation) of MS1 cells (MS1 cells [12]): significant inhibition
- viability at 3 h (in vitro): > 90%
- cell death of MS1 cells (MS1 cells [13]): no significant cell death
- CM-mediated migration of HUVECs (HUVECs [14]): significantly suppressed
- CD34 staining, blood vessel formation in tumors [15]: significant inhibition of blood vessel formation
- DNA fragmentation (TUNEL assay) in tumor tissues [15]: higher levels
- caspase-3 in tumor tissues [15]: higher levels
- expression of Ki67 in tumor tissues ([15]; vs control mice): decrease
- CHOP level [16]: stimulated
- phosphorylated PERK level [16]: significant up-regulation
- phosphorylated eIF2α level [16]: stimulated

Structure (SMILES): N#CC(=C(/N)Sc1ccccc1N)/C(C#N)=C(\N)Sc1ccccc1N [Complex U0126, reference compound]
- cell growth inhibition, agent alone (MDA-MB-231): insignificant cell growth inhibitory effects
- inhibition of invasion, agent alone (MDA-MB-231 cells [6]): notable inhibition
- inhibition of migration, agent alone (MDA-MB-231 cells [9]): notable inhibition
